According to the supplement of paper PMC10307832:

Assays:
Experiment in all cases: relative viability (nuclei count vs DMSO), 5 days (fraction); higher = more cells survive
BAM7 + Lapatinib = compound: CCOC1=CC=CC=C1N=NC2=C(NN(C2=O)C3=NC(=CS3)C4=CC=CC=C4)C [BAM7] + CS(=O)(=O)CCNCc1ccc(-c2ccc3ncnc(Nc4ccc(OCc5cccc(F)c5)c(Cl)c4)c3c2)o1 [Lapatinib] (partner 2 µM)
Procedure, shortened: (§1)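 The day after seeding in 1536-well plates, lung cancer cell lines were treated by pin tool with a single drug, or with a fixed anchor-drug dose together with five library-drug doses (not always all listed) in √10 steps. After 5 days, a combined fix-and-stain solution (final 0.05% Triton X-100, 1% formaldehyde, 1 ug/ml Hoechst) was added. Nuclei counted on 4× images gave relative viability as treated counts over vehicle counts, reported as the median of duplicate plates.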

[1] = compound: CCn1c(-c2nonc2N)nc2c(C#CC(C)(C)O)ncc(OC[C@H]3CCCNC3)c21 + Cc1nc(Nc2ncc(C(=O)Nc3c(C)cccc3Cl)s2)cc(N2CCN(CCO)CC2)n1 [Dasatinib] (partner 0.075 µM)
Procedure, shortened: as §1

BAM7 + Navitoclax = compound: CCOC1=CC=CC=C1N=NC2=C(NN(C2=O)C3=NC(=CS3)C4=CC=CC=C4)C [BAM7] + CC1(C)CCC(c2ccc(Cl)cc2)=C(CN2CCN(c3ccc(C(=O)NS(=O)(=O)c4ccc(N[C@H](CCN5CCOCC5)CSc5ccccc5)c(S(=O)(=O)C(F)(F)F)c4)cc3)CC2)C1 [Navitoclax] (partner 0.5 µM)
Procedure, shortened: as §1

[2] = compound: CCn1c(-c2nonc2N)nc2c(C#CC(C)(C)O)ncc(OC[C@H]3CCCNC3)c21 + CCNC(=O)c1noc(-c2cc(C(C)C)c(O)cc2O)c1-c1ccc(CN2CCOCC2)cc1 [Luminespib] (partner 0.01 µM)
Procedure, shortened: as §1

Cell Line | relative viability (BAM7 + Lapatinib; first compound 0.5 µM) | relative viability (BAM7 + Lapatinib; first compound 5 µM) | relative viability (BAM7 + Lapatinib; first compound 50 µM) | relative viability ([1]; first compound 0.01 µM) | relative viability ([1]; first compound 0.03162 µM) | relative viability ([1]; first compound 0.1 µM) | relative viability ([1]; first compound 0.3162 µM) | relative viability ([1]; first compound 1 µM) | relative viability (BAM7 + Navitoclax; first compound 0.5 µM) | relative viability (BAM7 + Navitoclax; first compound 5 µM) | relative viability (BAM7 + Navitoclax; first compound 50 µM) | relative viability ([2]; first compound 0.01 µM) | relative viability ([2]; first compound 0.03162 µM) | relative viability ([2]; first compound 0.1 µM) | relative viability ([2]; first compound 0.3162 µM) | relative viability ([2]; first compound 1 µM) | relative viability (BAM7 + Lapatinib; first compound 15.81 µM) | relative viability (BAM7 + Navitoclax; first compound 15.81 µM)
NCI-H1975 | 0.848 | 0.77 | 0.819 | 0.355 | 0.462 | 0.412 | 0.376 | 0.306 | 0.9 | 1.1 | 0.862 | 0.214 | 0.166 | 0.199 | 0.247 | 0.304 |  | 
CAL-12T | 0.677 | 0.581 | 0.692 | 0.404 | 0.459 | 0.343 | 0.323 | 0.326 | 1.1 | 1.2 | 1.26 | 0.234 | 1.07 | 0.431 | 0.362 | 0.427 | 0.599 | 1.14
NCI-H1623 |  |  |  | 0.567 | 0.482 | 0.548 | 0.438 | 0.453 |  |  |  | 0.443 | 0.639 | 0.486 | 0.425 | 0.472 |  | 
HCC-44 | 1.09 | 1.02 | 0.983 |  |  |  |  |  | 1.02 | 1.02 | 1.01 |  |  | 0.994 | 0.906 | 1.21 | 1 | 0.959
EKVX | 0.199 | 0.201 | 0.507 | 0.508 | 0.629 | 0.533 | 0.568 | 0.525 | 1.13 | 0.982 | 1.01 | 0.788 | 0.887 | 0.867 | 0.878 | 0.911 | 0.192 | 0.71
NCI-H1703 | 1.1 | 1.17 | 1.2 |  |  |  |  |  | 1.35 | 1.13 | 0.872 |  |  |  |  |  | 0.936 | 0.941
Calu-6 | 1.06 | 1.09 | 1.07 |  |  |  |  |  | 0.911 | 0.919 | 0.824 |  |  |  |  |  | 1.05 | 0.906
EBC-1 | 0.203 | 0.248 | 0.251 |  |  |  |  |  | 0.403 | 0.389 | 0.423 |  |  |  |  |  | 0.233 | 0.382
NCI-H358 | 0.46 | 0.522 | 0.568 | 0.196 | 0.19 | 0.169 | 0.135 | 0.183 |  |  |  | 0.375 | 0.403 | 0.279 | 0.257 | 0.419 | 0.479 | 
HCC-78 | 0.74 | 0.69 | 1.11 | 0.344 | 0.361 | 0.423 | 0.291 | 0.389 | 0.901 | 0.69 | 0.796 |  |  |  |  |  | 0.98 | 0.658
IA-LM | 0.766 | 0.816 | 0.748 |  |  |  |  |  | 0.689 | 0.556 | 0.658 |  |  |  |  |  | 0.784 | 0.556
NCI-H650 | 0.787 | 0.92 | 1.13 | 0.44 | 0.392 | 0.453 | 0.457 | 0.448 |  |  |  | 0.736 | 0.835 | 0.814 | 0.791 | 0.818 | 0.842 | 
